Results from patent US11634688B2, “Methods and compositions for inducing hematopoietic cell differentiation” (FATE THERAPEUTICS, INC., priority 2015, dated 2023).

How the values were obtained:
hiPSCs = assay: generation of CD34+ HE from hiPSC monolayer differentiation, flow cytometry at about D10; type: cell-based, human
Procedure: The above iHSC platform was further optimized for hematopoietic lineage cells differentiation. To initiate differentiation towards the hematopoietic lineage, hiPSCs were seeded as a monolayer on Day (D) 0 in the maintenance medium and allowed to adhere and expand for about 24 hours. At this point, the maintenance medium was removed and replaced with base medium without maintenance factors at D1. Hematopoietic differentiation was initiated at around D2 by switching the culture medium to iCD34-A (see FIG. 12). […] The monolayers were maintained until around D5-D6 at which point they were dissociated into single cells and seeded as a low density monolayer in iCD34-C medium until differentiation around D10. Low oxygen tension (2-10% O2) was maintained from the onset of hematopoietic differentiation around D2 up until around D10 of differentiation.
During the culture process, the directed differentiation towards the hematopoietic lineage was monitored by the dissociation of the monolayers into single cells and analysis for the surface marker expression of CD34, and optionally, CD43, CD45, CXCR4 and CD73 (FIG. 15A). At around D8 of differentiation, the appearance of a cell population representing HE was observed by the cell surface expression signature CD34+. CD43−CXCR4−CD73− was also observed in the CD34+ cells. The CD34+ population was maintained until around D10 (FIG. 15A). At D10, which time point can be shortened to about D9 or extended until about D12, the cells were dissociated into single cells and the CD34+ HE population was sorted by FACS using a BD FACS Aria for further analysis and functional assessment. […]
To optimize the efficient generation of HE from hiPSCs after around 10 days of differentiation several parameters were examined. The optimal plating density of the monolayers at DO of differentiation was assessed by plating increasing amounts of hiPSCs from 7.5×10^4/well to 1.5×10^5/well on matrigel™-coated 6 well culture dishes and then analyzing the generation of the CD34+ HE population at about D10. […]
The effect of the concentration of BMP4 modulation during the initial stages of hematopoietic differentiation on the generation of HE was assessed by treating the cultures with increasing concentrations of BMP4 ranging from 0 ng/ml to 30 ng/ml from about D2 to about D6 of differentiation. The generation of HE at D10 was assessed by the detection of the CD34+ HE population.
The Wnt pathway activator CHIR99021 is responsible for the induction of the definitive hematopoetic program from hiPSCs. The effect of the modulation of CHIR during the induction phase of the hematopoietic differentiation protocol was assessed by treating the cultures with increasing concentrations of CHIR from about D3.75 to about D6. […]

[1] = tested on: Day 10 CD34+ iHE sorted cells; assay: stromal-free NK cell differentiation on plate-bound DLL4, hiPSC-derived iHE; type: cell-based, human; details: plate bound DLL4 vs control protein; CD45+ gating
[2] = tested on: umbilical cord blood CD34+ cells; assay: stromal-free NK cell differentiation on plate-bound DLL4, umbilical cord blood CD34+ cells; details: plate-bound DLL4 vs stromal-based and stromal-free control cultures; 10-15 days
Procedure: Specific to NK cells, enriched umbilical cord blood CD34+ cells were plated in iNK-A serum-free differentiation media containing SCF, Flt3L, IL3, IL15 and IL7 in culture plates containing DLL4 protein or control protein. After 5 days the iNK-B medium was maintained to complete NK cell differentiation. After approximately 10-15 days of culture, the culture was assessed for the generation of NK cell progenitors and the absence of myeloid cells. CD56, CD7 and CD161 are the first cell surface markers to be expressed during NK cell development. CD11b and CD14 are cell surface markers expressed on myeloid cell subsets. FIG. 29 depicts stromal-free differentiation of umbilical cord blood CD34+ cells towards NK cells. […] Early NK lineage markers identify the presence of proNK cells as defined by CD56, CD7 and CD161 and the absence of myeloid markers CD11b and CD14.

[3] = CHIR from about D3.75 to about D6

Cc1c[nH]c(-c2cnc(NCCNc3ccc(C#N)cn3)nc2-c2ccc(Cl)cc2Cl)n1 [CHIR99021, reference compound]
effect of increasing CHIR99021 concentration on percentage of HE subpopulation (hiPSCs; [3]): decreases the percentage of the HE subpopulation
effect of increasing CHIR99021 concentration on total percentage of CD34+ cells (hiPSCs; [3]): increases the total percentage of CD34+ cells

IGF1: insulin-like growth factor 1
effect of addition of IGF1 and EPO on percentage of HE at around D10 (hiPSCs; IGF1 and EPO added together at Day 8): decreases the percentage of HE

DLL4: Notch activator, plate-bound DLL4 protein
differentiation of NK cell progenitors and myeloid cells [1]: supports the differentiation of CD56+CD7+CD161+ NK cell progenitors but not CD11b+myeloid cells
differentiation of CD56+CD7+CD161+ NK cell progenitors [2]: supports a more rapid and efficient differentiation of CD56+CD7+CD161+ NK cell progenitors

B1: BMP4: bone morphogenetic protein, BMP pathway activator (protein, UniProt P12644 293-408, looked up)
Bone morphogenetic protein 4: SPKHHSQRARKKNKNCRRHSLYVDFSDVGWNDWIVAPPGYQAFYCHGDCPFPLADHLNSTNHAIVQTLVNSVNSSIPKACCVPTELSAISMLYLDEYDKVVLKNYQEMVVEGCGCR
optimal concentration of BMP4 for HE population at D10 (hiPSCs; BMP4 0 ng/ml to 30 ng/ml from about D2 to about D6, CD34+ HE at D10): about 3 ng/mL
